Patent publication EP1035837B1, “LIPID COMPOSITIONS AND THEIR USE” (PHARES PHARMACEUTICAL RESEARCH N.V., priority 1997, dated 1999)

Experiments:
[1] = Pro-liposome gel formulation work: effect of ethanol and drug concentration on drug solubility, gel formation and gel appearance on storage; assay type: physicochemical
Description: Approximately 10% of the total lipid and all the ethanol were weighed into an amber glass jar and mixed until all the lipid had dispersed. The antifungal drug was added to the lipid/ethanol mixture and further mixing was carried out to break up the drug particles. The remainder of the lipid was added and mixing was continued until all the lipid had been dispersed. The glycerol was then added and stirring was continued until a homogenous gel was obtained. It was clear and translucent with a sweet pleasant taste and could be applied directly to the mucosa. From about 1% to 10% or more, but preferably about 2% to 5% of a hydrophilic polymer or natural gum can be dispersed in powder form to render the preparation muco-adhesive. Compositions utilising lipid blends or lecithins which contain 45% PC, form liposomes on conversion with water. The drug is associated with the liposomes at very high levels, ie greater than 90%.
The preparation of the pro-liposome miconazole and clotrimazole gel was as described above. Early formulation work was carried out to find: • i) A gel formulation with enough ethanol to dissolve the miconazole and clotrimazole giving the gel a translucent appearance, but with […] as to obtain an optimum viscosity profile (Table 1). • ii) A gel formulation with not too much miconazole or clotrimazole to induce crystallisation of the drug in the gel (Table 2).
At this level of ethanol, miconazole drug crystallisation was not seen in 1% and 2.5% miconazole gals.

[2] = cited from earlier work
[3] = % encapsulation of drug into liposomes from pro-liposome gels (filtration through 200 nm filters, HPLC); assay type: physicochemical; details: Example 3 gel (90% PC, Tris base); average particle size of 1-5µ
Description: The % encapsulation of the antifungal drugs miconazole and clotrimazole was determined by filtration of the liposome dispersion and by HPLC analysis of the unfiltered and filtered solutions for drug content. The principle behind the filtration technique is that the liposomes (with encapsulated antifungal). can be passed through 200 nm filters, while unencapsulated drug particles remain too large to pass through the filters. Pro-liposome gels were prepared, containing 2.5% and 1% miconazole and 1% and 0.5% clotrimazole. […] The % encapsulation of drug would be expected to decrease if crystallisation occurred in the gels with time.
Using the method of Example 1, pro-liposome gels were made with various concentrations of amphotericin B. The % encapsulation of the amphotericin B into liposomes (in 0.1% suspensions of the gel formulations) was measured at 3 days, 1 month, 3 months and 6 months after pro-liposome preparation. The gels were stored at 4°C ;in sealed containers, protected from light (Table 4). […]

[4] = Table 1, ethanol 5 %, 45% PC lipid 20 %, drug 1 %, glycerol 74 %
[5] = Table 2, ethanol 5 %, 45%PC 20 %, drug 1 %, glycerol 74 %
[6] = Table 2, ethanol 5 %, 45%PC 20 %, glycerol 72.5 %, drug 2.5 % (clotrimazole line prints 1)
[7] = ethanol 2.5 %, 45% PC lipid 20 %, drug 1 %, glycerol 76.5 %
[8] = ethanol 10 %, 45% PC lipid 20 %, drug 1 %, glycerol 69 %
[9] = ethanol 15 %, 45% PC lipid 20 %, drug 1 %, glycerol 64 %

Structure (SMILES)	Initial Comments: drug solubility in ethanol + 10% of lipid [1, 4]	Initial Comments: drug solubility in ethanol + 10% of lipid [1, 5]	Initial Comments: drug solubility in ethanol + 10% of lipid [1, 6]	Initial Comments: drug solubility in ethanol + 10% of lipid [1, 7]	Initial Comments: drug solubility in ethanol + 10% of lipid [1, 8]	Initial Comments: drug solubility in ethanol + 10% of lipid [1, 9]	solubility in ethanol [2]	solubility in water [2]	encapsulation into liposomes formed from the pro-liposome by addition of water [3] [%]
Clc1ccccc1C(c1ccccc1)(c1ccccc1)n1ccnc1 [Clotrimazole, 1-(o-chloro-a,a-diphenylbenzyl)imidazole]	Clotrimazole soluble in ethanol + 10% of lipid. Clear, golden gel formed with good viscosity	Clotrimazole soluble in ethanol + 10% of lipid. Clear, golden gel formed with good viscosity	Clotrimazole soluble in ethanol + 10% of lipid. Clear, golden gel formed with good viscosity	Clotrimazole insoluble in ethanol + 10% of lipid. Not enough ethanol to disperse all the lipid and form a gel	Clotrimazole soluble in ethanol + 10% of lipid. Clear, golden gel formed with runny viscosity	Clotrimazole soluble in ethanol + 10% of lipid. Clear, golden gel formed with very runny viscosity	soluble	insoluble	
C[C@@H]1[C@H](O)[C@@H](C)/C=C/C=C/C=C/C=C/C=C/C=C/C=C/[C@H](O[C@@H]2O[C@H](C)[C@@H](O)[C@H](N)[C@@H]2O)C[C@@H]2O[C@](O)(C[C@@H](O)C[C@@H](O)[C@H](O)CC[C@@H](O)C[C@@H](O)CC(=O)O[C@H]1C)C[C@H](O)[C@H]2C(=O)O [Amphotericin B, amphotericin B]									~100
Clc1ccc(COC(Cn2ccnc2)c2ccc(Cl)cc2Cl)c(Cl)c1 (stereo not drawn) [Miconazole, 1-[2-dichloro-β-[2,4-dichlorobenzyl)oxyphenethyl]imidazole mononitrate]	Miconazole soluble in ethanol + 10% of lipid. Clear, golden gel formed with good viscosity	Miconazole soluble in ethanol + 10% of lipid. Clear, golden gel formed with good viscosity	Miconazole soluble in ethanol + 10% of lipid. Clear, golden gel formed with good viscosity	Miconazole soluble in ethanol + 10% of lipid. Not enough ethanol to disperse all the lipid and form a gel	Miconazole soluble in ethanol + 10% of lipid. Clear, golden gel formed with runny viscosity	Miconazole soluble in ethanol + 10% of lipid. Clear, golden gel formed with very runny viscosity	very soluble	very slightly soluble	
